Measurements reported in paper PMC6797481, “Identification of an allosteric binding site on the human glycine transporter, GlyT2, for bioactive lipid analgesics” (eLife, 2019).

Columns and labels:
[1] = test system: GlyT1 WT; conditions: read-out: Glycine EC50, glycine transport
Description: Human GlyT1b or GlyT2a (herein referred to as GlyT1 and GlyT2) cDNA were sub-cloned into the plasmid oocyte transcription vector (pOTV). Site-directed mutagenesis was performed using traditional PCR techniques, and sequences confirmed by the Australian Genome Research Facility (Sydney, Australia). WT and mutant plasmid DNA were linearised with SpeI (New England Biolabs (Genesearch) Arundel, Australia) and RNA transcribed by T7 RNA polymerase using the mMessagemMachine kit (Ambion, TX, USA).
Oocytes were extracted from female Xenopus laevis frogs and detached from follicle cell containing lobes by digestion with 2 mg/mL collagenase A (Boehringer, Mannheim, Germany). Defoliculated stage V-VI oocytes were injected with 4.6 ng of cRNA encoding WT or mutant transporter (Drummond Nanoinject, Drummond Scientific Co., Broomall, PA, USA). Surgical proceedures have been approved by the University of Sydney Animal Ethics Committee (protocol 2016/970). […]
2–5 days following injection, glycine transport currents were measured at −60 mV using Geneclamp 500 amplifier (Axon Instruments, Foster City, CA, USA) with a Powerlab 2/20 chart recorder (ADInstruments, Sydney, Australia) and chart software (ADInstruments). All data were subsequently analysed using GraphPad Prism 7.02 (GraphPad Software, San Diego, CA). […]

[2] = test system: GlyT2 F428A, V432A, Y550L, P561S, W563L and L569F mutants; experiment: Screen of GlyT2 point mutants for inhibition by 1 µM oleoyl L-carnitine; type: cell-based, human; conditions: range over F428A
Description: The binding site for the allosteric serotonin reuptake inhibitor, (S)-citalopram, lies in the extracellular facing vestibule of SERT, formed by residues from TM1b, TM6a, TM10, and TM11 ([Coleman et al., 2016]). To determine if bioactive lipids inhibit GlyT2 by binding to this ‘vestibule allosteric site,’ corresponding residues in GlyT2 were mutated to remove potential interactions. OLCarn contains a bulky, zwitterionic head group conjugated to an oleoyl lipid tail, and was used as a screen to test mutant transporters for sensitivity to inhibition. None of the transporters containing mutations in the vestibule allosteric site display any change in inhibition compared to WT (Figure 1a). […] Mutations to GlyT2 residues were made either to resemble GlyT1, or to remove potential interactions with bioactive lipids but not disrupt the overall transport activity, often using substitutions present in the bacterial homologue, LeuT.
Figure 1. Defining the bioactive lipid binding site. (a) Inhibition of GlyT2 by 1 µM oleoyl L-carnitine. Transporters were WT or with mutations to the vestibule allosteric site (VAS) or adjacent to EL4. The reduced glycine transport currents were normalised to the current elicited by glycine alone. Data represented are means ± SEM with ****p<0.001 following a one way ANOVA test. […]

Row | SMILES | EC50 [1] | inhibition of glycine transport current [2]
1 | NCC(=O)O [Glycine] | 14.4 ± 1.2 µM | 
2 | CCCCCCCC/C=C\CCCCCCCC(=O)O[C@H](CC(=O)[O-])C[N+](C)(C)C [oleoyl L-Carnitine, reference compound] |  | 14.9–29.0%
